Measured values from patent US9802937B2, “Substituted pyrazolo{4,3-D}pyrimidines as kinase inhibitors” (ORIGENIS GMBH, priority 2011, dated 2017).

Target: T1, SYK kinase (Homo sapiens, UniProt P43405)
T1 construct: purchased Invitrogen, Carlsbad
Assay: SYK Assay (OMNIA KINASE ASSAY, SOX peptide fluorescence)
Assay type: biochemical
Conditions: apparent Ki calculated from the IC50 using the Cheng-Prusoff equation; 1 mM ATP, 30° C.; read-out: SYK Activities: Ki
Protocol: In the assay OMNIA® KINASE ASSAY by Invitrogen Corporation (Carlsbad) the effect of invention of a compound on the phosphorylation is determined by measurement of fluorescence intensity of a chelation-enhanced fluorophore called SOX. Upon phosphorylation of the peptide by the kinase of interest, Mg2+ is chelated to form a bridge between the SOX moiety and the phosphate group that is transferred to the specific tyrosine on the peptide. The fluorescence intensity is directly proportional to the amount of peptide phosphorylation.
To the wells of an 384 well small volume plate (Greiner, Frickenhausen) are added (i) the compound under test in 5% DMSO/distilled water (2 μl), (ii) 16 μl of the master mix containing ATP, DTT, Kinase Reaction Buffer, Omina Peptide Substrate Tyr 7 resulting in a final concentration of 1 mM ATP, 0.2 mM DTT and 10 μM Peptide Substrate.
The Master Mix and the assay plate was incubated to reaction temperature before the measurement (30° C.). The reaction was started with addition of (iii) 2 μl 4 μg/ml SYK kinase (Invitrogen, Carlsbad). During measurement fluorescence intensitiy readings were collected using a TECAN M1000 at a wavelength of λex 360/λem 485 nm every 30 s for 30 minutes. The reaction velocity was plotted versus the inhibitor concentration to determine the […] using XLFit 5.0 (IDBS, Guildford) to fit to a sigmoidal dose response curve, and the apparent Ki values were calculated from the IC50 using the Cheng-Prusoff equation (Cheng, Y.; Prusoff, W. H. Biochem. Pharmacol. 22, 3099-3108, 1973).

Structure (SMILES) | Ki
CSc1cccc(-c2nc(Nc3ccc(N4CCOCC4)cc3)c3[nH]ncc3n2)c1 [Example #224, 5-(3-(methylthio)phenyl)-N-(4-morpholinophenyl)-1H-pyrazolo[4,3-d]pyrimidin-7-amine] | 100 to 1000 nM
COc1ccc(Nc2nc(-c3cccc(OC(F)(F)F)c3)nc3cn[nH]c23)cc1OC [Example #226, N-(3,4-dimethoxyphenyl)-5-(3-(trifluoromethoxy)phenyl)-1H-pyrazolo[4,3-d]pyrimidin-7-amine] | 10 to 100 nM
FC(F)(F)Oc1cccc(-c2nc(Nc3ccc(N4CCOCC4)cc3)c3[nH]ncc3n2)c1 [Example #227, N-(4-morpholinophenyl)-5-(3-(trifluoromethoxy)phenyl)-1H-pyrazolo[4,3-d]pyrimidin-7-amine] | 10 to 100 nM
COc1ccc(Nc2nc(-c3cccc(C(F)(F)F)c3)nc3cn[nH]c23)cc1OC [Example #228, N-(3,4-dimethoxyphenyl)-5-(3-(trifluoromethyl)phenyl)-1H-pyrazolo[4,3-d]pyrimidin-7-amine] | 10 to 100 nM
FC(F)(F)c1cccc(-c2nc(Nc3ccc(N4CCOCC4)cc3)c3[nH]ncc3n2)c1 [Example #229, N-(4-morpholinophenyl)-5-(3-(trifluoromethyl)phenyl)-1H-pyrazolo[4,3-d]pyrimidin-7-amine] | 10 to 100 nM
COc1ccc(Nc2nc(-c3cccc(Cl)c3)nc3cn[nH]c23)cc1OC [Example #230, 5-(3-chlorophenyl)-N-(3,4-dimethoxyphenyl)-1H-pyrazolo[4,3-d]pyrimidin-7-amine] | 10 to 100 nM
Clc1cccc(-c2nc(Nc3ccc(N4CCOCC4)cc3)c3[nH]ncc3n2)c1 [Example #231, 5-(3-chlorophenyl)-N-(4-morpholinophenyl)-1H-pyrazolo[4,3-d]pyrimidin-7-amine] | 10 to 100 nM
CSc1cccc(-c2nc(Nc3ccc4c(c3)NC(=O)CC4)c3[nH]ncc3n2)c1 [Example #236, 7-((5-(3-(methylthio)phenyl)-1H-pyrazolo[4,3-d]pyrimidin-7-yl)amino)-3,4-dihydroquinolin-2(1H)-one] | 10 to 100 nM
COC(=O)c1ccc(-c2nc(Nc3ccc(N4CCOCC4)cc3)c3[nH]ncc3n2)cc1 [Example #242, methyl 4-(7-((4-morpholinophenyl)amino)-1H-pyrazolo[4,3-d]pyrimidin-5-yl)benzoate] | 10 to 100 nM
O=C(O)c1ccc(-c2nc(Nc3ccc(N4CCOCC4)cc3)c3[nH]ncc3n2)cc1 [Example #243, 4-(7-((4-morpholinophenyl)amino)-1H-pyrazolo[4,3-d]pyrimidin-5-yl)benzoic acid] | < 10 nM
COc1ccc(Nc2nc(-c3ccc(C(=O)O)cc3)nc3cn[nH]c23)cc1OC [Example #244, 4-(7-((3,4-dimethoxyphenyl)amino)-1H-pyrazolo[4,3-d]pyrimidin-5-yl)benzoic acid] | < 10 nM
Cc1nc2cc(Nc3nc(-c4cccs4)nc4cn[nH]c34)ccc2[nH]1 [Example #245, N-(2-methyl-1H-benzo[d]imidazol-5-yl)-5-(thiophen-2-yl)-1H-pyrazolo[4,3-d]pyrimidin-7-amine] | < 10 nM
CC(=O)N1CCN(c2ccc(Nc3nc(-c4cccc(S(C)(=O)=O)c4)nc4cn[nH]c34)cc2)CC1 [Example #246, 1-(4-(4-((5-(3-(methylsulfonyl)phenyl)-1H-pyrazolo[4,3-d]pyrimidin-7-yl)amino)phenyl)piperazin-1-yl)ethan-1-one] | < 10 nM
COc1ccc(Nc2nc(-c3cccc(S(C)(=O)=O)c3)nc3cn[nH]c23)cc1OC [Example #249, N-(3,4-dimethoxyphenyl)-5-(3-(methylsulfonyl)phenyl)-1H-pyrazolo[4,3-d]pyrimidin-7-amine] | 10 to 100 nM
CS(=O)(=O)c1cccc(Nc2nc(-c3cccc(S(C)(=O)=O)c3)nc3cn[nH]c23)c1 [Example #253, N,5-bis(3-(methylsulfonyl)phenyl)-1H-pyrazolo[4,3-d]pyrimidin-7-amine] | 10 to 100 nM
CC(=O)N1CCN(c2ccc(Nc3nc(-c4cnc5cc[nH]c5c4)nc4cn[nH]c34)cc2)CC1 [Example #256, 1-(4-(4-((5-(1H-pyrrolo[3,2-b]pyridin-6-yl)-1H-pyrazolo[4,3-d]pyrimidin-7-yl)amino)phenyl)piperazin-1-yl)ethan-1-one] | < 10 nM
c1cc2ncc(-c3nc(Nc4ccc(N5CCOCC5)cc4)c4[nH]ncc4n3)cc2[nH]1 [Example #258, N-(4-morpholinophenyl)-5-(1H-pyrrolo[3,2-b]pyridin-6-yl)-1H-pyrazolo[4,3-d]pyrimidin-7-amine] | 10 to 100 nM

Structure (SMILES) | Ki
Cc1nc2cc(Nc3nc(-c4cnc5cc[nH]c5c4)nc4cn[nH]c34)ccc2[nH]1 [Example #259, N-(2-methyl-1H-benzo[d]imidazol-5-yl)-5-(1H-pyrrolo[3,2-b]pyridin-6-yl)-1H-pyrazolo[4,3-d]pyrimidin-7-amine] | 100 to 1000 nM
CN(C)S(=O)(=O)c1ccc(Nc2nc(-c3cccs3)nc3cn[nH]c23)cc1 [Example #260, N,N-dimethyl-4-((5-(thiophen-2-yl)-1H-pyrazolo[4,3-d]pyrimidin-7-yl)amino)benzenesulfonamide] | 10 to 100 nM
c1cc(Nc2nc(-c3cccs3)nc3cn[nH]c23)cc(-n2nccn2)c1 [Example #262, N-(3-(2H-1,2,3-triazol-2-yl)phenyl)-5-(thiophen-2-yl)-1H-pyrazolo[4,3-d]pyrimidin-7-amine] | 100 to 1000 nM
c1csc(-c2nc(Nc3ccc(-n4nccn4)cc3)c3[nH]ncc3n2)c1 [Example #263, N-(4-(2H-1,2,3-triazol-2-yl)phenyl)-5-(thiophen-2-yl)-1H-pyrazolo[4,3-d]pyrimidin-7-amine] | 100 to 1000 nM
CN(C)S(=O)(=O)c1cccc(Nc2nc(-c3cccs3)nc3cn[nH]c23)c1 [Example #264, N,N-dimethyl-3-((5-(thiophen-2-yl)-1H-pyrazolo[4,3-d]pyrimidin-7-yl)amino)benzenesulfonamide] | 100 to 1000 nM
O=S(=O)(c1cccc(Nc2nc(-c3cccs3)nc3cn[nH]c23)c1)N1CCOCC1 [Example #266, N-(3-(morpholinosulfonyl)phenyl)-5-(thiophen-2-yl)-1H-pyrazolo[4,3-d]pyrimidin-7-amine] | 100 to 1000 nM
O=S(=O)(c1cccc(Nc2nc(-c3cccs3)nc3cn[nH]c23)c1)C(F)(F)F [Example #267, 5-(thiophen-2-yl)-N-(3-((trifluoromethyl)sulfonyl)phenyl)-1H-pyrazolo[4,3-d]pyrimidin-7-amine] | 100 to 1000 nM
COc1ccc(Nc2nc(-c3ccc(F)cc3)nc3cn[nH]c23)cc1OC [Example #270, N-(3,4-dimethoxyphenyl)-5-(4-fluorophenyl)-1H-pyrazolo[4,3-d]pyrimidin-7-amine] | 10 to 100 nM
COc1ccc(Nc2nc(-c3ccc(F)c(F)c3)nc3cn[nH]c23)cc1OC [Example #272, 5-(3,4-difluorophenyl)-N-(3,4-dimethoxyphenyl)-1H-pyrazolo[4,3-d]pyrimidin-7-amine] | 100 to 1000 nM
Fc1ccc(-c2nc(Nc3ccc(N4CCOCC4)cc3)c3[nH]ncc3n2)cc1F [Example #273, 5-(3,4-difluorophenyl)-N-(4-morpholinophenyl)-1H-pyrazolo[4,3-d]pyrimidin-7-amine] | 10 to 100 nM
COc1ccc(Nc2nc(-c3cc(F)cc(F)c3)nc3cn[nH]c23)cc1OC [Example #274, 5-(3,5-difluorophenyl)-N-(3,4-dimethoxyphenyl)-1H-pyrazolo[4,3-d]pyrimidin-7-amine] | 100 to 1000 nM
COc1ccc(Nc2nc(-c3ccc(F)cc3F)nc3cn[nH]c23)cc1OC [Example #285, 5-(2,4-difluorophenyl)-N-(3,4-dimethoxyphenyl)-1H-pyrazolo[4,3-d]pyrimidin-7-amine] | < 10 nM
O=C1CCc2ccc(Nc3nc(-c4ccc5c(c4)NC(=O)CO5)nc4cn[nH]c34)cc2N1 [Example #287, 6-(7-((2-oxo-1,2,3,4-tetrahydroquinolin-7-yl)amino)-1H-pyrazolo[4,3-d]pyrimidin-5-yl)-2H-benzo[b][1,4]oxazin-3(4H)-one] | 10 to 100 nM
CS(=O)(=O)c1ccccc1Nc1nc(-c2cccs2)nc2cn[nH]c12 [Example #291, N-(2-(methylsulfonyl)phenyl)-5-(thiophen-2-yl)-1H-pyrazolo[4,3-d]pyrimidin-7-amine] | 10 to 100 nM
CN(C)Cc1cccc(Nc2nc(-c3cccs3)nc3cn[nH]c23)c1 [Example #292, N-(3-((dimethylamino)methyl)phenyl)-5-(thiophen-2-yl)-1H-pyrazolo[4,3-d]pyrimidin-7-amine] | 100 to 1000 nM
CC(=O)N1CCN(c2ccc(Nc3nc(-c4ccc5c(c4)NC(=O)CO5)nc4cn[nH]c34)cc2)CC1 [Example #298, 6-(7-((4-(4-acetylpiperazin-1-yl)phenyl)amino)-1H-pyrazolo[4,3-d]pyrimidin-5-yl)-2H-benzo[b][1,4]oxazin-3(4H)-one] | < 10 nM
COc1ccc(Nc2nc(-c3ccc4c(c3)NC(=O)CO4)nc3cn[nH]c23)cc1OC [Example #299, 6-(7-((3,4-dimethoxyphenyl)amino)-1H-pyrazolo[4,3-d]pyrimidin-5-yl)-2H-benzo[b][1,4]oxazin-3(4H)-one] | 10 to 100 nM
